Experimental data: patent US5382584A, “Adenosine re-uptake inhibiting derivatives of diphenyl oxazoles, thiazoles and imidazoles” (Bristol-Myers Squibb Company, priority 1994, dated 1995)
Counter-ions that a name gives are not always drawn.

Test: neuroprotective activity of single enantiomers (test not specified)
Excerpt: A chiral synthetic procedure was also developed to provide single enantiomers of certain stereoisomeric compounds of Formula I. The procedure is illustrated in Scheme III. This synthesis results in a Formula I compound with a chiral center in the piperazine ring. […] While both enantiomers were neuroprotective, the S-(-)-enantiomer had about 30 times the activity of the R-(+)-enantiomer. [drawing 11]

## Cl.Cl.Cl.NC(=O)[C@H]1CN(Cc2nc(-c3ccccc3)c(-c3ccccc3)o2)CCN1CC(=O)Nc1c(Cl)cc(N)cc1Cl.O [R-(+)-enantiomer, R-(+)-2-(aminocarbonyl)-N-(4-amino-2,6-dichlorophenyl)-4-[(4,5-diphenyl-2-oxazolyl)methyl]-1-piperazineacetamide trihydrochloride monohydrate]
  neuroprotection: neuroprotective

## NC(=O)[C@@H]1CN(Cc2nc(-c3ccccc3)c(-c3ccccc3)o2)CCN1CC(=O)Nc1c(Cl)cc(N)cc1Cl [S-(-)-enantiomer, S-(-)-2-(aminocarbonyl)-N-(4-amino-2,6-dichlorophenyl)-4-[(4,5-diphenyl-2-oxazolyl)methyl]-1-piperazineacetamide Trihydrochloride]
  neuroprotection: neuroprotective
Neuroprotective activity
  activity relative to the R-(+)-enantiomer: about 30 times
